Experimental data published in publication PMC12064818, “A general assay platform to study protein pharmacology using ligand-dependent structural dynamics” (Nature Communications, 2025).
“And” between values parts separate entries of the source, which are not always exact repeats. Equal entries are not always repeated.

Molecular target: FLuc-C-NLuc (firefly luciferase) (Photinus pyralis, UniProt P08659, form not given/L550V)
Test: SDR assay, FLuc-C-NLuc
Settings: for SDR + 10 mM ATP / SDR No ATP: 1 nM FLuc-C-NLuc, replicates; for SDR + 10 mM ATP / SDR No ATP / 1 nM FLuc-C-NLuc + 10 mM ATP, Mean / 1 nM FLuc-C-NLuc No ATP, Mean: Log [PTC124]; for SDR assay statistics Ave RLU / SDR assay statistics S:B / SDR assay statistics S:N / SDR assay statistics Z’: 32.8 µM ligand; for 1 nM FLuc-C-NLuc + 10 mM ATP, Mean / 1 nM FLuc-C-NLuc No ATP, Mean: SDR

Sequence of FLuc-C-NLuc (firefly luciferase) (P08659 2-550 L550V, form open): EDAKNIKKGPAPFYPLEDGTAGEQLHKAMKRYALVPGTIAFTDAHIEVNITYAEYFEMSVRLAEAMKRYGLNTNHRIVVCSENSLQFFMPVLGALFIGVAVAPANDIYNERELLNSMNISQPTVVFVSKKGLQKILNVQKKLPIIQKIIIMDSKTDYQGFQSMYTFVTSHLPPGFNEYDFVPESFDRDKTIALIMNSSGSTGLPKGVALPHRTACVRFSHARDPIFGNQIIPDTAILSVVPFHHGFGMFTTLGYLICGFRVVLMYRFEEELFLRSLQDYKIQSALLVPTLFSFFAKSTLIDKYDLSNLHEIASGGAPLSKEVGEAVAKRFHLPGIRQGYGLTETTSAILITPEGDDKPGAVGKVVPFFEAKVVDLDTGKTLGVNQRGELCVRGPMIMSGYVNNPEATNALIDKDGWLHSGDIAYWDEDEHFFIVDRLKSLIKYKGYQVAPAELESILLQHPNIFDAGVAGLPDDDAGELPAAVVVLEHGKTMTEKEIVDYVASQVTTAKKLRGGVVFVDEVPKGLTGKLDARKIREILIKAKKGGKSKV

In the case of `O=C(O)c1cccc(-c2noc(-c3ccccc3F)n2)c1` [PTC124, reference compound], the “SDR + 10 mM ATP” value (M -11.16) is reported as 6972.7 RLU and 6906.8 RLU (2×) and 7044.6 RLU and 7092.1 RLU and 7092.6 RLU, the “SDR No ATP” value (M -11.16) is reported as 6852.5 RLU and 6810.5 RLU and 6865.3 RLU and 6827.1 RLU and 6885.6 RLU and 6853.6 RLU and the “SDR + 10 mM ATP” value (M -11.64) is reported as 6987.2 RLU and 6840.0 RLU and 7030.1 RLU and 6788.2 RLU and 7034.1 RLU and 6802.7 RLU. The “SDR No ATP” value (M -11.64) was 6913.4 RLU and 6769.3 RLU and 6893.0 RLU and 6868.3 RLU and 6877.6 RLU and 6825.9 RLU, the “pSDR50, FLuc-C-NLuc (1 nM)” value (10 μM ATP) was 9.95 ± 0.05 and the “SDR assay statistics Ave RLU” value (FLuc-C-NLuc (1 nM) + 10 mM ATP) was 8287.4 RLU. For the same compound, the “SDR assay statistics S:B” value (FLuc-C-NLuc (1 nM) + 10 mM ATP) was 1.2, the “SDR assay statistics S:N” value (FLuc-C-NLuc (1 nM) + 10 mM ATP) was 3.4 and the “SDR assay statistics Z’” value (FLuc-C-NLuc (1 nM) + 10 mM ATP) was -0.259. For the same compound, the “SDR assay statistics Ave RLU” value (FLuc-C-NLuc (1 nM) No ATP) was 7850.3 RLU, the “SDR assay statistics S:B” value (FLuc-C-NLuc (1 nM) No ATP) was 1.2 and the “SDR assay statistics S:N” value (FLuc-C-NLuc (1 nM) No ATP) was 2.6. The “SDR assay statistics Z’” value (FLuc-C-NLuc (1 nM) No ATP) was -0.605, the “1 nM FLuc-C-NLuc + 10 mM ATP, Mean” value (M -4.48) was 7523.5 RLU and the “1 nM FLuc-C-NLuc No ATP, Mean” value (M -4.48) was 7116.2 RLU. The “1 nM FLuc-C-NLuc + 10 mM ATP, Mean” value (M -4.96) was 8718.4 RLU, the “1 nM FLuc-C-NLuc No ATP, Mean” value (M -4.96) was 7741.8 RLU and the “1 nM FLuc-C-NLuc + 10 mM ATP, Mean” value (M -5.44) was 9386.1 RLU. For the same compound, the “1 nM FLuc-C-NLuc No ATP, Mean” value (M -5.44) was 7522.2 RLU, the “1 nM FLuc-C-NLuc + 10 mM ATP, Mean” value (M -5.91) was 9658.9 RLU and the “1 nM FLuc-C-NLuc No ATP, Mean” value (M -5.91) was 7037.6 RLU. The “1 nM FLuc-C-NLuc + 10 mM ATP, Mean” value (M -6.39) was 9952.4 RLU, the “1 nM FLuc-C-NLuc No ATP, Mean” value (M -6.39) was 6773.0 RLU and the “1 nM FLuc-C-NLuc + 10 mM ATP, Mean” value (M -6.87) was 10097.2 RLU. The “1 nM FLuc-C-NLuc No ATP, Mean” value (M -6.87) was 6588.7 RLU, the “1 nM FLuc-C-NLuc + 10 mM ATP, Mean” value (M -7.35) was 10226.8 RLU and the “1 nM FLuc-C-NLuc No ATP, Mean” value (M -7.35) was 6681.5 RLU. The “1 nM FLuc-C-NLuc + 10 mM ATP, Mean” value (M -7.82) was 10303.8 RLU, the “1 nM FLuc-C-NLuc No ATP, Mean” value (M -7.82) was 6587.4 RLU and the “1 nM FLuc-C-NLuc + 10 mM ATP, Mean” value (M -8.30) was 10339.6 RLU. For the same compound, the “1 nM FLuc-C-NLuc No ATP, Mean” value (M -8.30) was 6783.7 RLU, the “1 nM FLuc-C-NLuc + 10 mM ATP, Mean” value (M -8.78) was 10244.6 RLU and the “1 nM FLuc-C-NLuc No ATP, Mean” value (M -8.78) was 6799.2 RLU. For the same compound, the “1 nM FLuc-C-NLuc + 10 mM ATP, Mean” value (M -9.25) was 10011.8 RLU, the “1 nM FLuc-C-NLuc No ATP, Mean” value (M -9.25) was 6787.5 RLU and the “1 nM FLuc-C-NLuc + 10 mM ATP, Mean” value (M -9.73) was 9047.0 RLU. The “1 nM FLuc-C-NLuc No ATP, Mean” value (M -9.73) was 6823.9 RLU, the “1 nM FLuc-C-NLuc + 10 mM ATP, Mean” value (M -10.21) was 8062.7 RLU and the “1 nM FLuc-C-NLuc No ATP, Mean” value (M -10.21) was 6886.1 RLU. For the same compound, the “1 nM FLuc-C-NLuc + 10 mM ATP, Mean” value (M -10.69) was 7360.6 RLU, the “1 nM FLuc-C-NLuc No ATP, Mean” value (M -10.69) was 6890.0 RLU and the “1 nM FLuc-C-NLuc + 10 mM ATP, Mean” value (M -11.16) was 7002.6 RLU. The “1 nM FLuc-C-NLuc No ATP, Mean” value (M -11.16) was 6849.1 RLU, the “1 nM FLuc-C-NLuc + 10 mM ATP, Mean” value (M -11.64) was 6913.7 RLU and the “1 nM FLuc-C-NLuc No ATP, Mean” value (M -11.64) was 6857.9 RLU.
